Patent publication US20110172147A1, “NEUROPEPTIDE-2 RECEPTOR (Y-2R) AGONISTS” (priority 2009, published 2011)

Tests used:
Assay type in all cases: cell-based
[1] = biological target: T1, Y1R (Homo sapiens, UniProt P25929); assay: CaFlux Assay (FLIPR), Y1R
T1 sequence (P25929 1-384): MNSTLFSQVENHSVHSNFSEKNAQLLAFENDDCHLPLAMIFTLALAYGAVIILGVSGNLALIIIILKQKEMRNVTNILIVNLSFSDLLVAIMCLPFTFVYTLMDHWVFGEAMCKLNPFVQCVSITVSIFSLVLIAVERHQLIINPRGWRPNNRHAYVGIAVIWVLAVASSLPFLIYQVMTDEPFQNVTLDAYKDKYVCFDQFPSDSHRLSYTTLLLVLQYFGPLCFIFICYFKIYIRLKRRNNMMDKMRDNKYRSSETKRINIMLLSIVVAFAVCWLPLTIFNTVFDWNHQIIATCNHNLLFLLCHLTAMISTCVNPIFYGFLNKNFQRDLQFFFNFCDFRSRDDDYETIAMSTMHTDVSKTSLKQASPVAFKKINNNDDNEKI

[2] = biological target: Y4R (Homo sapiens, UniProt P50391); assay: CaFlux Assay (FLIPR), Y4R
[3] = biological target: T2, Y5R (Homo sapiens, UniProt Q15761); assay: CaFlux Assay (FLIPR), Y5R
T2 sequence (Q15761 1-445): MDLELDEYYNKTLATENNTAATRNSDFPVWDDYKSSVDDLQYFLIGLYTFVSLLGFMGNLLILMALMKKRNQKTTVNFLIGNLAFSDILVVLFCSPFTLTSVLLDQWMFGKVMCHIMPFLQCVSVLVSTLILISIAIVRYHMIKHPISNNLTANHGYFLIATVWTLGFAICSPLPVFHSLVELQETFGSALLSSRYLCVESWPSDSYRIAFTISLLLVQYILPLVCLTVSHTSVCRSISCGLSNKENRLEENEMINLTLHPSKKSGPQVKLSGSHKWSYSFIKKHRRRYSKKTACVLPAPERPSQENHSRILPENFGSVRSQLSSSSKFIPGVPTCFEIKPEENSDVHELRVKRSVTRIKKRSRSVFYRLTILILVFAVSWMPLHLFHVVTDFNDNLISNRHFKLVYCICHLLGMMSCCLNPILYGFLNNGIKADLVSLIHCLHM

[4] = biological target: T3, hNPY2R (Homo sapiens, UniProt P49146); assay: cAMP Agonist Assay, HEK293/hNPY2R; parameters: expressed in transfected cells; host or cells: HEK293/hNPY2R (G418 selection)
T3 sequence (P49146 1-381): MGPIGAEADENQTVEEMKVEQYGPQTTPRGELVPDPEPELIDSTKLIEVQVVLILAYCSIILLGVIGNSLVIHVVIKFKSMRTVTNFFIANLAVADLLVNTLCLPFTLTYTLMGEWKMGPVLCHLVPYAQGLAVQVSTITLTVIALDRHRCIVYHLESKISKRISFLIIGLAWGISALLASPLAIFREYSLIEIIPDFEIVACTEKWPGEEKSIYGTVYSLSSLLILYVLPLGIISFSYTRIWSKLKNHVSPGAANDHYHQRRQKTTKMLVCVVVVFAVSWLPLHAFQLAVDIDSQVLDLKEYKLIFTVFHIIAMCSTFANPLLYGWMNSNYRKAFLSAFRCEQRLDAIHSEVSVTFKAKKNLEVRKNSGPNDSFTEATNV
In short: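 HEK293/hNPY2R cells (10,000/well, overnight) stimulated 30 min at room temperature with compound plus 5 μM forskolin and 0.5 mM IBMX (1.1% DMSO final). Lysate cAMP measured by competitive chemiluminescent ELISA (AP conjugate, CSPD substrate); quadruplicates.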

[5] = biological target: T3, hNPY2R; assay: CaFlux Assay (FLIPR), Y2R; parameters: expressed in transfected cells; host or cells: HEK-293 stably transfected with G protein chimera Gαqi9
In short: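 Stable HEK-293/Gαqi9 clones expressing receptor, pre-loaded 1 h at 37 °C with calcium dye containing 5 mM probenecid. Test compound in HBSS with 0.05% BSA and 1% DMSO added on FLIPR; baseline-corrected peak fluorescence taken as % of positive-control maximum.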

Y4R, sequence (P50391 whole entry): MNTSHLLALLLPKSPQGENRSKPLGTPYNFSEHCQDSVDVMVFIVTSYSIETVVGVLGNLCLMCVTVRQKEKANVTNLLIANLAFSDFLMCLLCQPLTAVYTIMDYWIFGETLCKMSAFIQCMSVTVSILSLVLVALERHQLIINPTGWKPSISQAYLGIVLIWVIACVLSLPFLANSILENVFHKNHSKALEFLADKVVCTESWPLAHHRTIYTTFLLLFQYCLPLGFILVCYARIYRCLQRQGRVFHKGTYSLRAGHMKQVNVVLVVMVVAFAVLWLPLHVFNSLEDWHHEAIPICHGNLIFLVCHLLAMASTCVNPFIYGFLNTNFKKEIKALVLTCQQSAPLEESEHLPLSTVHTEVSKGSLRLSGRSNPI

| SMILES | EC50 [1] [nM] | EC50 [2] [nM] | EC50 [3] [nM] | EC50 [4] [nM] | EC50 [5] [nM] |
| --- | --- | --- | --- | --- | --- |
| CCCCCCCCCCCCCCCC(=O)NCCCCCC(=O)N[C@H](C(=O)N[C@@H](CCCCNC(=O)CCOCCOCCOCCOCCOCCOCCOCCOCCOCCOCCOCCOCCOCCOCCOCCOCCOCCOCCOCCOCCOCCOCCOCCOC)C(=O)N1CCN(c2ccc3ncn(CC(=O)N[C@@H](CCCNC(=N)N)C(=O)N[C@@H](Cc4c[nH]cn4)C(=O)N[C@@H](Cc4ccc(O)cc4)C(=O)N[C@@H](CC(C)C)C(=O)N[C@@H](CC(N)=O)C(=O)N[C@@H](Cc4c[nH]c5ccccc45)C(=O)N[C@H](C(=O)N[C@H](C(=O)N[C@@H](CCCNC(=N)N)C(=O)N[C@@H](CCC(N)=O)C(=O)N(C)[C@@H](CCCNC(=N)N)C(=O)N[C@@H](Cc4ccc(O)cc4)C(N)=O)[C@@H](C)O)C(C)C)c(=O)c3c2)CC1)[C@@H](C)CC [Example 34] | > 5000 | > 5000 | 988 | 0.18 | 0.068 |
| CCCCCCCCCCCC(=O)NCCCCCC(=O)N[C@H](C(=O)N[C@@H](CCCCNC(=O)CCOCCOCCOCCOCCOCCOCCOCCOCCOCCOCCOCCOCCOCCOCCOCCOCCOCCOCCOCCOCCOCCOCCOCCOC)C(=O)N1CCN(c2ccc3ncn(CC(=O)N[C@@H](CCCNC(N)=O)C(=O)N[C@@H](Cc4c[nH]cn4)C(=O)N[C@@H](Cc4ccc(O)cc4)C(=O)N[C@@H](CC(C)C)C(=O)N[C@@H](CC(N)=O)C(=O)N[C@@H](Cc4c[nH]c5ccccc45)C(=O)N[C@H](C(=O)N[C@H](C(=O)N[C@@H](CCCNC(=N)N)C(=O)N[C@@H](CCC(N)=O)C(=O)N(C)[C@@H](CCCNC(=N)N)C(=O)N[C@@H](Cc4ccc(O)cc4)C(N)=O)[C@@H](C)O)C(C)C)c(=O)c3c2)CC1)[C@@H](C)CC [Example 36] | > 6000 | > 6000 | > 6000 | 12.7 | 0.388 |
| CCCCCCCCCCCCCC(=O)NCCCCCC(=O)N[C@H](C(=O)N[C@@H](CCCCNC(=O)CCOCCOCCOCCOCCOCCOCCOCCOCCOCCOCCOCCOCCOCCOCCOCCOCCOCCOCCOCCOCCOCCOCCOCCOC)C(=O)N1CCN(c2ccc3ncn(CC(=O)N[C@@H](CCCNC(N)=O)C(=O)N[C@@H](Cc4c[nH]cn4)C(=O)N[C@@H](Cc4ccc(O)cc4)C(=O)N[C@@H](CC(C)C)C(=O)N[C@@H](CC(N)=O)C(=O)N[C@@H](Cc4c[nH]c5ccccc45)C(=O)N[C@H](C(=O)N[C@H](C(=O)N[C@@H](CCCNC(=N)N)C(=O)N[C@@H](CCC(N)=O)C(=O)N(C)[C@@H](CCCNC(=N)N)C(=O)N[C@@H](Cc4ccc(O)cc4)C(N)=O)[C@@H](C)O)C(C)C)c(=O)c3c2)CC1)[C@@H](C)CC [Example 37] | > 6000 | > 6000 | 4260 | 2.8 | 0.158 |
| CCCCCCCCCCCCCCCC(=O)NCCCCCC(=O)NCCOCCOCCOCCOCCOCCOCCOCCOCCOCCOCCOCCOCCOCCOCCOCCOCCOCCOCCOCCOCCOCCOCCOCCOCCC(=O)N[C@H](C(=O)N[C@@H](CCCCN)C(=O)N1CCN(c2ccc3ncn(CC(=O)N[C@@H](CCCNC(=N)N)C(=O)N[C@@H](Cc4c[nH]cn4)C(=O)N[C@@H](Cc4ccc(O)cc4)C(=O)N[C@@H](CC(C)C)C(=O)N[C@@H](CC(N)=O)C(=O)N[C@@H](Cc4c[nH]c5ccccc45)C(=O)N[C@H](C(=O)N[C@H](C(=O)N[C@@H](CCCNC(=N)N)C(=O)N[C@@H](CCC(N)=O)C(=O)N(C)[C@@H](CCCNC(=N)N)C(=O)N[C@@H](Cc4ccc(O)cc4)C(N)=O)[C@@H](C)O)C(C)C)c(=O)c3c2)CC1)[C@@H](C)CC [Example 38] | > 6000 | > 6000 | 1380 | 0.07 | 0.1 |
| CCCCCCCCCCCCCCCC(=O)NCCCCCC(=O)NCCOCCOCCOCCOCCOCCOCCOCCOCCOCCOCCOCCOCCOCCOCCOCCOCCOCCOCCOCCOCCOCCOCCOCCOCCC(=O)NCCCC[C@H](NC(=O)[C@@H](NC(C)=O)[C@@H](C)CC)C(=O)N1CCN(c2ccc3ncn(CC(=O)N[C@@H](CCCNC(=N)N)C(=O)N[C@@H](Cc4c[nH]cn4)C(=O)N[C@@H](Cc4ccc(O)cc4)C(=O)N[C@@H](CC(C)C)C(=O)N[C@@H](CC(N)=O)C(=O)N[C@@H](Cc4c[nH]c5ccccc45)C(=O)N[C@H](C(=O)N[C@H](C(=O)N[C@@H](CCCNC(=N)N)C(=O)N[C@@H](CCC(N)=O)C(=O)N(C)[C@@H](CCCNC(=N)N)C(=O)N[C@@H](Cc4ccc(O)cc4)C(N)=O)[C@@H](C)O)C(C)C)c(=O)c3c2)CC1 [Example 39] | > 6000 | > 6000 | 1950 | 0.07 | 0.038 |
| CCCCCCCCCCCCCCCC(=O)NCCCCCC(=O)NCCCCCC(=O)N[C@H](C(=O)N[C@@H](CCCCNC(=O)CCOCCOCCOCCOCCOCCOCCOCCOCCOCCOCCOCCOC)C(=O)N1CCN(c2ccc3ncn(CC(=O)N[C@@H](CCCNC(=N)N)C(=O)N[C@@H](Cc4c[nH]cn4)C(=O)N[C@@H](Cc4ccc(O)cc4)C(=O)N[C@@H](CC(C)C)C(=O)N[C@@H](CC(N)=O)C(=O)N[C@@H](Cc4c[nH]c5ccccc45)C(=O)N[C@H](C(=O)N[C@H](C(=O)N[C@@H](CCCNC(=N)N)C(=O)N[C@@H](CCC(N)=O)C(=O)N(C)[C@@H](CCCNC(=N)N)C(=O)N[C@@H](Cc4ccc(O)cc4)C(N)=O)[C@@H](C)O)C(C)C)c(=O)c3c2)CC1)[C@@H](C)CC [Example 40] | > 6000 | > 6000 | 820 | 0.11 | 0.058 |
| CCCCCCCCCCCCCCCC(=O)NCCCCCC(=O)NCCCCCC(=O)N[C@H](C(=O)N[C@@H](CCCCNC(=O)CCOCCOCCOCCOCCOCCOCCOCCOCCOCCOCCOCCOCCOCCOCCOCCOC)C(=O)N1CCN(c2ccc3ncn(CC(=O)N[C@@H](CCCNC(=N)N)C(=O)N[C@@H](Cc4c[nH]cn4)C(=O)N[C@@H](Cc4ccc(O)cc4)C(=O)N[C@@H](CC(C)C)C(=O)N[C@@H](CC(N)=O)C(=O)N[C@@H](Cc4c[nH]c5ccccc45)C(=O)N[C@H](C(=O)N[C@H](C(=O)N[C@@H](CCCNC(=N)N)C(=O)N[C@@H](CCC(N)=O)C(=O)N(C)[C@@H](CCCNC(=N)N)C(=O)N[C@@H](Cc4ccc(O)cc4)C(N)=O)[C@@H](C)O)C(C)C)c(=O)c3c2)CC1)[C@@H](C)CC [Example 41] | > 6000 | > 6000 | 1320 | 0.17 | 0.04 |
| CCCCCCCCCCCCCCCC(=O)NCCCCCC(=O)NCCCCCC(=O)N[C@H](C(=O)N[C@@H](CCCCNC(=O)CCOCCOCCOCCOCCOCCOCCOCCOCCOCCOCCOCCOCCOCCOCCOCCOCCOCCOCCOCCOCCOCCOCCOCCOC)C(=O)N1CCN(c2ccc3ncn(CC(=O)N[C@@H](CCCNC(=N)N)C(=O)N[C@@H](Cc4c[nH]cn4)C(=O)N[C@@H](Cc4ccc(O)cc4)C(=O)N[C@@H](CC(C)C)C(=O)N[C@@H](CC(N)=O)C(=O)N[C@@H](Cc4c[nH]c5ccccc45)C(=O)N[C@H](C(=O)N[C@H](C(=O)N[C@@H](CCCNC(=N)N)C(=O)N[C@@H](CCC(N)=O)C(=O)N(C)[C@@H](CCCNC(=N)N)C(=O)N[C@@H](Cc4ccc(O)cc4)C(N)=O)[C@@H](C)O)C(C)C)c(=O)c3c2)CC1)[C@@H](C)CC [Example 42] | > 6000 | > 6000 | 815 | 0.13 | 0.069 |
